From PubChem BioAssay (NCI)
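Following 48 hours of exposure in 96-well plates, responses at five concentrations were used to interpolate endpoints linearly. Abbreviation: GI50, concentration required for 50% inhibition of growth. TGI denotes the concentration required for complete inhibition of growth.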

Experiments:
Experiment in all cases: NCI anticancer screen, dose series, 48 h
COLO 205 colon = tested on: COLO 205 colon
HCT-116 colon = tested on: HCT-116 colon
HL-60(TB) leukemia = tested on: HL-60(TB) leukemia
K-562 leukemia = tested on: K-562 leukemia
KM12 colon = tested on: KM12 colon
MOLT-4 leukemia = tested on: MOLT-4 leukemia
TK-10 renal = tested on: TK-10 renal
U251 CNS = tested on: U251 CNS
UACC-257 melanoma = tested on: UACC-257 melanoma
UO-31 renal = tested on: UO-31 renal

| Structure (SMILES) | TGI (COLO 205 colon) [µM] | TGI (HCT-116 colon) [µM] | TGI (HL-60(TB) leukemia) [µM] | TGI (K-562 leukemia) [µM] | TGI (KM12 colon) [µM] | TGI (MOLT-4 leukemia) [µM] | TGI (TK-10 renal) [µM] | TGI (U251 CNS) [µM] | TGI (UACC-257 melanoma) [µM] | TGI (UO-31 renal) [µM] | GI50 (COLO 205 colon) [µM] | GI50 (HCT-116 colon) [µM] | GI50 (HL-60(TB) leukemia) [µM] | GI50 (K-562 leukemia) [µM] | GI50 (KM12 colon) [µM] | GI50 (MOLT-4 leukemia) [µM] | GI50 (TK-10 renal) [µM] | GI50 (U251 CNS) [µM] | GI50 (UACC-257 melanoma) [µM] | GI50 (UO-31 renal) [µM] |
| --- | --- | --- | --- | --- | --- | --- | --- | --- | --- | --- | --- | --- | --- | --- | --- | --- | --- | --- | --- | --- |
| Cc1cn(C2CC(O)C(CO)O2)c(=O)n2nnnc12 (stereo not given) | > 100 | > 100 | > 100 | > 100 | > 100 | > 100 | > 100 | > 100 | > 100 | > 100 | – | – | – | – | – | – | – | – | – | – |
| Cc1nc(N)sc1C(=O)/C=C\c1ccc2c(c1)OCO2 | > 100 | > 100 | > 100 | > 100 | > 100 | > 100 | > 100 | > 100 | > 100 | > 100 | – | – | – | – | – | – | – | – | – | – |
| CC1(C)C(=O)N(CCCCCCN2C(=O)C(C)(C)c3ccccc32)c2ccccc21 | 55.2 | 42.4 | 19.7 | 55.4 | > 100 | 60 | > 100 | > 100 | 52 | 92.6 | – | – | – | – | – | – | – | – | – | – |
| O=C(O)C1OC(n2cc(F)c(=O)[nH]c2=O)CC1O (stereo not given) | > 100 | > 100 | > 100 | > 100 | > 100 | > 56.2 | > 100 | > 100 | > 100 | > 100 | – | – | – | – | – | – | – | – | – | – |
| O=C1C2C3C=C4c5ccccc5N(c5ccccc5)C4(C2C(=O)N1Cc1ccccc1)C1C(=O)N(Cc2ccccc2)C(=O)C31 (stereo not given) | > 100 | > 100 | > 100 | > 100 | > 100 | > 100 | > 100 | > 100 | > 100 | > 100 | – | – | – | – | – | – | – | – | – | – |
| COc1cc(C(C)O)c[n+](CCc2c[nH]c3ccccc23)c1 (stereo not given) | > 100 | > 100 | > 100 | > 100 | > 100 | > 100 | > 100 | > 100 | > 100 | > 100 | – | – | – | – | – | – | – | – | – | – |
| CC(C)(C)c1ccc2c(c1)S(=O)(=O)Nc1ccccc1NS(=O)(=O)c1cc(C(C)(C)C)ccc1OCCOCCOCCO2 | > 100 | > 100 | > 100 | > 100 | > 100 | > 100 | > 100 | > 100 | > 100 | > 100 | – | – | – | – | – | – | – | – | – | – |
| Cc1ccc(C(=O)CN(/C=C/C(=O)C(F)(F)F)c2ccc(S(N)(=O)=O)cc2)cc1 | > 100 | > 100 | > 100 | > 100 | > 100 | > 100 | > 100 | > 100 | > 100 | > 100 | > 100 | 41.9 | 41.1 | 39.3 | 31.4 | 44 | 44.5 | 48.4 | > 100 | > 100 |
| CN1CCN(CCCOc2ccc3nc(Nc4ccc(Cl)c(C(F)(F)F)c4)ccc3c2)CC1 | 24.4 | 21.7 | 31.1 | 5.78 | 23.4 | 24.3 | 32.8 | 26.2 | 33.4 | 29.4 | 9.79 | 8.44 | 13.9 | 2.4 | 9.51 | 8.2 | 18.3 | 12.5 | 18.8 | 14.5 |
